Assay: xn = mol fraction of the nth substance listed
Settings: Liquid

CCCCCCCl [1-chlorohexane] + CCCCCCCC
mass density [kg/m3]
Settings | x2 = 0 | x2 = 0.1016 | x2 = 0.1996 | x2 = 0.3153 | x2 = 0.3948 | x2 = 0.4862 | x2 = 0.5938 | x2 = 0.6966 | x2 = 0.794 | x2 = 0.9001
318.15 K, 39620 kPa | – | – | – | – | – | – | – | – | – | 728.95
328.15 K, 100 kPa | 845.18 | 824.75 | – | 784.31 | 770.08 | 754.25 | 736.27 | 719.76 | 704.68 | 688.86
328.15 K, 2130 kPa | 847.12 | 826.75 | 807.96 | 786.36 | 772.17 | 756.35 | 738.33 | 721.87 | 706.7 | 690.84
328.15 K, 4150 kPa | 849.17 | 828.82 | 810.05 | 788.45 | 774.26 | 758.45 | 740.42 | 723.96 | 708.79 | 692.91
328.15 K, 6180 kPa | 851.16 | 830.83 | 812.05 | 790.48 | 776.28 | 760.49 | 742.45 | 725.98 | 710.81 | 694.93
328.15 K, 8210 kPa | 853.13 | 832.8 | 814.05 | 792.45 | 778.27 | 762.48 | 744.42 | 728 | 712.79 | 696.92
328.15 K, 10230 kPa | 855.02 | 834.72 | 815.97 | 794.38 | 780.21 | 764.41 | 746.38 | 729.93 | 714.74 | 698.84
328.15 K, 11250 kPa | 855.98 | 835.67 | 816.92 | 795.34 | 781.17 | 765.37 | 747.33 | 730.88 | 715.68 | 699.79
328.15 K, 12260 kPa | 856.91 | 836.61 | 817.87 | 796.3 | 782.13 | 766.33 | 748.28 | 731.81 | 716.64 | 700.74
328.15 K, 14290 kPa | 858.76 | 838.48 | 819.73 | 798.16 | 784 | 768.18 | 750.17 | 733.7 | 718.5 | 702.6
328.15 K, 16310 kPa | 860.59 | 840.3 | 821.56 | 799.99 | 785.83 | 770.03 | 752 | 735.52 | 720.32 | 704.39
328.15 K, 18340 kPa | 862.35 | 842.06 | 823.33 | 801.75 | 787.59 | 771.78 | 753.76 | 737.29 | 722.07 | 706.15
328.15 K, 20370 kPa | 864.12 | 843.84 | 825.11 | 803.54 | 789.37 | 773.56 | 755.51 | 739.04 | 723.83 | 707.88
328.15 K, 22390 kPa | 865.82 | 845.55 | 826.81 | 805.24 | 791.08 | 775.27 | 757.24 | 740.74 | 725.52 | 709.57
328.15 K, 24420 kPa | 867.51 | 847.24 | 828.51 | 806.94 | 792.78 | 776.96 | 758.91 | 742.4 | 727.18 | 711.21
328.15 K, 26450 kPa | 869.18 | 848.91 | 830.19 | 808.59 | 794.43 | 778.61 | 760.54 | 744.05 | 728.79 | 712.83
328.15 K, 28470 kPa | 870.8 | 850.52 | 831.8 | 810.22 | 796.05 | 780.22 | 762.15 | 745.64 | 730.38 | 714.38
328.15 K, 29490 kPa | 871.6 | 851.32 | 832.59 | 811.01 | 796.83 | 781.01 | 762.93 | 746.43 | 731.16 | 715.18
328.15 K, 30500 kPa | 872.4 | 852.13 | 833.4 | 811.81 | 797.63 | 781.8 | 763.73 | 747.21 | 731.95 | 715.96
328.15 K, 32530 kPa | 873.95 | 853.71 | 834.95 | 813.36 | 799.19 | 783.35 | 765.25 | 748.74 | 733.44 | 717.46
328.15 K, 34550 kPa | 875.49 | 855.25 | 836.5 | 814.87 | 800.71 | 784.87 | 766.77 | 750.23 | 734.96 | 718.95
328.15 K, 36580 kPa | 877.05 | 856.79 | 838.03 | 816.42 | 802.23 | 786.39 | 768.27 | 751.74 | 736.44 | 720.42
328.15 K, 38600 kPa | 878.53 | 858.28 | 839.51 | 817.9 | 803.7 | 787.85 | 769.73 | 753.2 | 737.86 | 721.85
328.15 K, 39620 kPa | 879.31 | 859.03 | 840.27 | 818.64 | 804.43 | 788.56 | 770.44 | 753.9 | 738.58 | 722.55
